Results published in patent US7199136B2, “1,4-dihydro-1,4-diphenylpyridine derivatives” (Bayer HealthCare AG, priority 2001, dated 2007).

Each molecule was assayed on human polymorphonuclear cells (PMNs) (assay: In vitro PMN elastolysis assay (tritiated elastin)). Conditions: at 1.2 μM; n=3 different donors at 3.6×10^5 cells per well; 4 hours at 37° C.
Format: cell-based
Description: II. In Vitro PMN Elastolysis Assay
This assay is used to determine the elastolytic potential of human polymorphonuclear cells (PMNs) and assess the proportion of degradation due to neutrophil elastase [cf. Z. W. She et al., Am. J. Respir. Cell. Mol. Biol. 9, 386–392 (1993)].
Tritiated elastin, in suspension, is coated on to a 96 well plate at 10 μg per well. Test and reference [ZD-0892 (J. Med. Chem. 40, 1876–1885, 3173–3181 (1997), WO 95/21855) and α1 protease inhibitor (α1PI)] compounds are added to the wells at the appropriate concentrations. Human PMNs are separated from peripheral venous blood of healthy donors and resuspended in culture media. […] Porcine pancreatic elastase (1.3 μM is used as a positive control for the assay, and α1PI (1.2 μM) is used as the positive inhibitor of neutrophil elastase. The cellular control is PMNs without compound at each appropriate cell density. The cells plus compounds are incubated in a humidified incubator at 37° C. for 4 hours. The plates are centrifuged to allow the harvest of cell supernatant only. The supernatant is transferred in 75 μl volumes to corresponding wells of a 96 well Lumaplate™ (solid scintillant containing plates). The plates are dried until no liquid is visible in the wells and read in a beta counter for 3 minutes per well. […]

Molecule	inhibition of 3H-elastin elastolysis (mean±s.e.m.) [%]
α1PI: α1 protease inhibitor, used as the positive inhibitor of neutrophil elastase	83.46±3.97

Same assay, conditions: n=2 different donors at 3.6×10^5 cells per well; read-out: IC50 (mean±s.e.m.) of elastolysis inhibition

Molecule	IC50 [nM]
COc1ccc(C(=O)N[C@H](C(=O)N2CCC[C@H]2C(=O)N[C@H](C(=O)C(F)(F)F)C(C)C)C(C)C)cc1 [ZD-0892, reference compound]	45.5 ± 7.75

The molecules below were run against T1, human neutrophil elastase (HNE) (Homo sapiens, UniProt P08246) (assay: In vitro inhibition of HNE using a fluorogenic peptide substrate (MeOSuc-Ala-Ala-Pro-Val-AMC), 384 MTP format). Conditions: 37° C.
T1 construct: purchased SERVA Electrophoresis GmbH, Heidelberg, Germany #20927.01
T1 sequence (P08246 30-267): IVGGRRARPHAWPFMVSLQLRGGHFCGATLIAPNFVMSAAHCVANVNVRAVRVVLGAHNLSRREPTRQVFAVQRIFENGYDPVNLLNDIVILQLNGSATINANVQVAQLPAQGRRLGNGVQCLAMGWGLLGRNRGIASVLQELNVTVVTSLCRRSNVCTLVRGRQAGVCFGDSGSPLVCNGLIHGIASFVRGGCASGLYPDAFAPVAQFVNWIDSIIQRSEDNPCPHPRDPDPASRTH
Format: biochemical
Description: I. In Vitro Assays of Human Neutrophil Elastase (HNE)
The test solution is prepared by mixing 10 μl of test compound dilution, 20 μl of HNE enzyme dilution (final concentration 8–0.4 μU/ml, routinely 2.1 μU/ml) and 20 μl of substrate dilution (final concentration 1 mM–1 μM, routinely 20 μM), respectively. The solution is incubated for 0–2 hrs at 37° C. (routinely one hour). The fluorescence of the liberated AMC due to the enzymatic reaction is measured at 37° C. (TECAN spectra fluor plus plate reader). […] IC50 values are determined by RFU-versus-[I] plots. Km and Km(app.) values are determined by Lineweaver-Burk plots and converted to Ki values by Dixon plots.

Molecule	IC50 [nM]
CCOC(=O)C1=CN(c2cccc(C(F)(F)F)c2)C(C)=C(C(C)=O)C1c1ccc(C#N)cc1 (racemic) [Example 8, (±)-Ethyl 5-acetyl-4-(4-cyanophenyl)-6-methyl-1-[3-(trifluoromethyl)phenyl]-1,4-dihydro-3-pyridinecarboxylate]	330
CCOC(=O)C1=C(C)N(c2cccc(C(F)(F)F)c2)C(C)=C(C(C)=O)C1c1ccc(C#N)cc1 (racemic) [Example 10, (±)-Ethyl 5-acetyl-4-(4-cyanophenyl)-2,6-dimethyl-1-[3-(trifluoromethyl)phenyl]-1,4-dihydro-3-pyridinecarboxylate]	230
CCOC(=O)C1=C(N)N(c2cccc(C)c2)C(C)=C(C(C)=O)C1c1ccc(C#N)cc1 (stereo not shown) [Example 12, Ethyl 5-acetyl-2-amino-4-(4-cyanophenyl)-6-methyl-1-[3-methylphenyl]-1,4-di-hydro-3-pyridinecarboxylate]	180
CC(=O)C1=C(C)N(c2cccc(C(F)(F)F)c2)C(N)=C(C(N)=O)C1c1ccc(C#N)cc1 (stereo not shown) [Example 13, 5-Acetyl-2-amino-4-(4-cyanophenyl)-6-methyl-1-[3-(trifluoromethyl)phenyl]-1,4-dihydro-3-pyridinecarboxamide]	30
CC(=O)C1=C(C)N(c2cccc(C(F)(F)F)c2)C(=N)C(C(=O)N(C)C)C1c1ccc(C#N)cc1 (stereo not shown) [Example 14, 5-Acetyl-4-(4-cyanophenyl)-2-imino-N,N,6-trimethyl-1-[3-(trifluoromethyl)phenyl]-1,2,3,4-tetrahydro-3-pyridinecarboxamide]	20
CC(=O)C1=C(C)N(c2cccc(C(F)(F)F)c2)C(N)=C(C#N)C1c1ccc(C#N)cc1 (stereo not shown) [Example 15, 5-Acetyl-2-amino-4-(4-cyanophenyl)-6-methyl-1-[3-(trifluoromethyl)phenyl]-1,4-dihydro-3-pyridinecarbonitrile]	120
CCOC(=O)C1=C(N)N(c2cccc(CN(CC)CC)c2)C(C)=C(C(C)=O)C1c1ccc(C#N)cc1 (stereo not shown) [Example 17, Ethyl 5-acetyl-2-amino-4-(4-cyanophenyl)-1-{3-[(diethylamino)methyl]phenyl}-6-methyl-1,4-dihydro-3-pyridinecarboxylate]	9000
CCOC(=O)C1=C(N)N(c2cc(OC)cc(C(F)(F)F)c2)C(C)=C(C(C)=O)C1c1ccc(C#N)cc1 (stereo not shown) [Example 18, Ethyl 5-acetyl-2-amino-4-(4-cyanophenyl)-1-[3-methoxy-5-(trifluoromethyl)phenyl]-6-methyl-1,4-dihydro-3-pyridinecarboxylate]	30
